Experimental data from patent US7862798B2, “Vitamin-targeted imaging agents” (Endocyte, Inc., priority 2002, dated 2011).
“Also recorded” adds a separate entry of the source.

Assays:
[1] = molecular target: T1, folate receptor (FR) on KB cells (Homo sapiens, UniProt P15328); assay: Concentration-dependent cell uptake (Scatchard analysis); type: binding; settings: 2 hours at 37° C.
T1 construct: FR-positive KB cells were gently trypsinized; endogenous in cells; host or cells: KB cells
Description: KB cells were seeded in 12-well Falcon plates and allowed to form sub-confluent monolayers overnight. Following one rinse with 1 mL of fresh FERPMI/HIFCS, each well received 1 mL of FFRPMI/HIFCS containing increasing concentrations of ^99mTc-EC20. Cells were incubated for 2 hours at 37° C. and then rinsed four times with 1 mL of ice-cold PBS, pH 7.4. The monolayers were dissolved in 0.5 mL of PBS, pH 7.4 containing 1% sodium dodecyl sulfate for 15 min at room temperature and then counted for radioactivity using a Packard gamma counter. Protein content was determined as described above, and final tabulated values were expressed in terms of molecules of EC20 per cell.
The particular KB cells used were determined to bind a maximum of four million molecules of the folate radiopharmaceutical per cell.
This HPLC-purified radiolabeled material (Peak B material) was collected and then added to cultured KB cells.

FR-positive KB cells = assay: Time-dependent cell uptake; type: cell-based, human; set-up: time to half-maximal saturation point: dose or concentration left out as unconfirmed
Description: KB cells were seeded in 12-well Falcon plates and allowed to form sub-confluent monolayers overnight. Following one rinse with 1 mL of fresh FFRPMI/HIFCS, each well received 1 mL of FFRPMI/HIFCS containing 10 nM ^99mTc-EC20. Cells were incubated for predetermined times at 37° C. and then rinsed four times with 1 mL of ice-cold PBS, pH 7.4. The cell monolayers were dissolved in 0.5 mL of PBS, pH 7.4 containing 1% sodium dodecyl sulfate for 15 min at room temperature and then counted for radioactivity using a Packard gamma counter. The protein in each sample was quantitated using a BioRad DC Protein Assay kit, and cellular protein values were converted to cell number using the conversion factor of 2.23×10^−7 mg protein per cell. Final tabulated values were expressed in terms of molecules of EC20 per cell.
The kinetics of ^99mTc-EC20 uptake into FR-positive KB cells was quantitatively measured using this protocol.

[2] = Serum protein binding (ultrafiltration), human serum; type: in vitro ADME; settings: room temperature, ultrafiltration 30,000 NMWL
Description: (§1) Fresh rat serum, and commercial male human serum (type AB donors, Sigma Chemical Co.) were used to evaluate in vitro binding of ^99mTc˜EC20 to serum proteins. One minute after ^99mTc-EC20 was mixed with 1 mL of serum at room temperature, 0.3 mL of the serum solution was transferred to a clean Amicon Centrifree® ultrafiltration device (30,000 NMWL) in triplicate. Within one minute of loading the centrifuge with the serum solution, the device was spun at 1000×g for 20 minutes at 20° C. 50 μL samples of the original solution, and of the filtrate from each device, was transferred to a clean tube and counted in an automatic gamma counter. A control solution of ^99mTc˜EC20 mixed with 1 mL of normal saline was ultrafiltered in an identical fashion. The percentage of free ^99mTc was calculated for each of the three samples.

FR-positive M109 tumors [3] = assay: Gamma scintigraphy; type: in vivo, Balb/c mice; settings: 4 hr after i.v. administration, M109 tumor-bearing Balb/c mouse
Description: Whole body image acquisition was performed for 1 minute at a count rate of 50-75,000 counts per minute using a Technicare Omega 500 Sigma 410 Radioisotope Gamma Camera. All data were analyzed using a Medasys MS-DOS-based computer equipped with Medasys Pinnacle software.

[4] = Serum protein binding (ultrafiltration), rat serum; type: in vitro ADME; settings: room temperature, ultrafiltration 30,000 NMWL
Description: as §1

FR-positive M109 tumors [5] = assay: Tissue distribution, subcutaneous M109 tumors (Example 11)
Description: The ability of ^99mTc-EC20 to target tumors in vivo was assessed using a FR-positive M109 model.
Four to five week-old mice (Balb/c strain) were purchased from Harlan Sprague Dawley, Inc. (Indianapolis, Ind.) and were maintained on a folate-free diet for a total of three weeks prior to the experiment. Syngeneic, FR-positive M109 tumor cells (1×10^6 per animal) were inoculated in the subcutis of the right axilla two weeks prior to the experiment.
Animals received an approximate 40 μmol/kg i.v. dose of test article in 100 μL volume via a lateral tail vein during brief diethyl ether anesthesia. Four hours post-injection, animals were sacrificed by CO2 asphyxiation, and dissected. Selected tissues were removed, weighed, and counted to determine ^99mTc distribution. CPM values were decay-corrected, and results were tabulated as % injected dose per gram of wet weight tissue.

Blood clearance = type: in vivo, Balb/c mice
Description: Animals used for this study were maintained on a folate-free diet (Harlan #TD-90261) for approximately three weeks prior to dose administration. […] Furthermore, previous studies have shown that mice placed on a folate-free diet for 3 weeks had maintained a safe serum folate level of 25±7 nM, which is slightly higher than the 9-14 nM concentration measurable in human serum.
The ^99mTc-EC20 solution was prepared on the day of use and had initially contained 100 μg of EC20 per milliliter. The solution was further diluted with sterile saline to prepare working stock solutions. The radiochemical purity of the product was estimated to be ˜94% by TLC. Each animal received a dose of 50 μg/kg EC20 (67 nmol/kg) in approximately 0.1 mL volume i.v. via the tail vein during brief diethyl ether anesthesia. At the designated times (see FIG. 8) post-injection, each animal was euthanized by CO2 asphyxiation, and blood was immediately collected by cardiac puncture.

[6] = 4 hr post i.v., + Folic acid (100 equivalents)
[7] = 4 hr post intravenous injection

T1 sequence (P15328 25-234): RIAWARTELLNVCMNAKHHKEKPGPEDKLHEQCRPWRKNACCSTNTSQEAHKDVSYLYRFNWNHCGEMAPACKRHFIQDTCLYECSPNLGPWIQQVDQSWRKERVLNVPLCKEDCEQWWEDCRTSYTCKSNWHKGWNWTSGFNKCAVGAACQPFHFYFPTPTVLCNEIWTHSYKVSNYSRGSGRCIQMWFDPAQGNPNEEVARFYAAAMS

[NH-][C@@H](CNC(=O)CC[C@@H](NC(=O)c1ccc(NCc2cnc3nc(N)[nH]c(=O)c3n2)cc1)C(=O)O)C(=O)[N-][C@@H](CC(=O)O)C(=O)[N-][C@@H](C[S-])C(=O)O.[O]=[Tc+4] [^99mTc-EC20]
maximum molecules bound per cell [1]: four million
Kd ([1]; read-out: KD of binding (Scatchard analysis)): 3.2 nM
time to half-maximal cell association (FR-positive KB cells; 10 nM, 37° C.): 9 min
molecules of EC20 cell-associated at steady state (FR-positive KB cells; 10 nM, 37° C., KB cells): approximately 3.2 million
time to steady-state uptake (FR-positive KB cells; 10 nM, 37° C., KB cells): within two hours
time to half-maximal saturation point (FR-positive KB cells; 10-fold higher concentration): 37 s
associated with the >30 kDa serum protein fraction [2]: 72%
whole-body gamma image, localization of radiotracer (FR-positive M109 tumors [3]): localizes the gamma radiation to the two kidneys (K) and the M109 tumor mass; also recorded: Only the kidneys (K) and tumor (T) exhibit significant accumulation
associated with the >30 kDa serum protein fraction [4]: 69%
Blood (FR-positive M109 tumors [5]; [6]): 0.09 ± 0.02 % Injected Dose per Gram Tissue
Heart (FR-positive M109 tumors [5]; [6]): 0.08 ± 0.01 % Injected Dose per Gram Tissue
Intestine (FR-positive M109 tumors [5]; [6]): 2.93 ± 1.49 % Injected Dose per Gram Tissue
Kidney (FR-positive M109 tumors [5]; [6]): 5.64 ± 2.13 % Injected Dose per Gram Tissue
Liver (FR-positive M109 tumors [5]; [6]): 1.15 ± 0.22 % Injected Dose per Gram Tissue
Lung (FR-positive M109 tumors [5]; [6]): 0.31 ± 0.26 % Injected Dose per Gram Tissue
Muscle (FR-positive M109 tumors [5]; [6]): 0.06 ± 0.02 % Injected Dose per Gram Tissue
Spleen (FR-positive M109 tumors [5]; [6]): 0.38 ± 0.33 % Injected Dose per Gram Tissue
Stomach (FR-positive M109 tumors [5]; [6]): 3.35 ± 5.19 % Injected Dose per Gram Tissue
Tumor (FR-positive M109 tumors [5]; [6]): 0.45 ± 0.18 % Injected Dose per Gram Tissue
Tumor/Blood (FR-positive M109 tumors [5]; [6]): 4.70 ± 1.30
Blood (FR-positive M109 tumors [5]; [7]): 0.34 ± 0.03 % Injected Dose per Gram Tissue
Heart (FR-positive M109 tumors [5]; [7]): 1.57 ± 0.26 % Injected Dose per Gram Tissue
Intestine (FR-positive M109 tumors [5]; [7]): 2.56 ± 0.61 % Injected Dose per Gram Tissue
Kidney (FR-positive M109 tumors [5]; [7]): 138 ± 12.4 % Injected Dose per Gram Tissue
Liver (FR-positive M109 tumors [5]; [7]): 3.56 ± 0.25 % Injected Dose per Gram Tissue
Lung (FR-positive M109 tumors [5]; [7]): 2.22 ± 0.63 % Injected Dose per Gram Tissue
Muscle (FR-positive M109 tumors [5]; [7]): 0.67 ± 0.20 % Injected Dose per Gram Tissue
Spleen (FR-positive M109 tumors [5]; [7]): 0.95 ± 0.15 % Injected Dose per Gram Tissue
Stomach (FR-positive M109 tumors [5]; [7]): 1.45 ± 0.55 % Injected Dose per Gram Tissue
plasma half life (Blood clearance; 50 μg/kg EC20 i.v., Balb/c mouse): ~4 min
injected dose remaining in circulation (Blood clearance; after four hours, blood assumed 5.5% of body mass): less than 0.2%
